The nature of data set [1]: Solubility / aggregation screen of AQGV peptide salts. The note with it: for aggregation in aqueous solution: in relation to peptide-acetate aggregation. The text has this: FIG. 7: Overview of solubility experiments with results in Table 1.
A short description of data set [2]: Adverse events (AEs) in the EASI-study (phase II, CABG patients). It counts as in vivo, human. On the procedure:
A prospective, randomized, double-blind, placebo-controlled study was performed in which 180 elective patients undergoing on-pump coronary artery bypass grafting were enrolled. Patients were randomized in a 1:1 ratio and received either EA-230, 90 mg/kg/hour, or a placebo. These were infused at the start of the surgical procedure until the end of the use of the cardiopulmonary bypass. The main focus in this first-in-patient study was on safety and tolerability of EA-230. The primary efficacy endpoint was the modulation of the inflammatory response by EA-230. A key secondary endpoint was the effect of EA-230 on renal function.
The present study was a single-center, prospective, double-blind, placebo-controlled, randomized, single-dose phase II study. It has an adaptive design to evaluate the safety and immunomodulatory effects of EA-230 in patients undergoing for coronary artery bypass grafting (CABG). 180 eligible patients were included and were randomized to receive either active or placebo treatment in a 1:1 ratio. This was a first-in-patient safety and tolerability study, of which the primary efficacy objective was to assess the immunomodulatory effects of EA-230. The key-secondary efficacy endpoint was the effect of EA-230 on renal function. This study was described in accordance with the Standard Protocol Items: Recommendations for Interventional Trial (SPIRIT) guidelines, and registered at clinicaltrials.gov under number NCT03145220.
Intravenous infusion of EA-230, 90 mg/kg/hour, or placebo, was initiated at the moment of first surgical incision using an automated infusion pump. Infusion rate was set at 250 mL/hour, and infusion was continued until cessation of the CPB, or after 4 hours of continuous infusion, whichever comes first.
All AEs were judged by the investigators with regard to severity (“mild, moderate, or severe”) according to Common Terminology Criteria for Adverse Events guidelines 4.030 and their perceived relation to the study drug (“definitely, probably, possibly, or unrelated/unlikely to be related”). SAEs or SUSARs include death, life-threatening disease, persistent and/or significant disability and/or incapacity, and hospitalization and/or prolongation of inpatient hospitalization.

The text below walks through data of patent US20230241155A1, “METHODS AND MEANS FOR MODIFYING HEMODYNAMICS IN INFECTIONS” (Biotempt B.V., priority 2020, published 2023).

“Also recorded” adds a separate entry of the source. Like-named read-outs stand apart in the source and are kept apart here. Peptide text beside a SMILES is read from it.

AQGV-citrate: in data set [1], the “behaviour of highly concentrated solution” value is “does not crystallize or aggregate but tend to form a highly viscous solution”, the “solubility (aggregation point)” value was “Higher solubility” and the “aggregation in aqueous solution” value was “(strongly) reduced aggregation”.
`O=C(O)/C=C\C(=O)O` [maleic acid]: the “aggregation in aqueous solution” value in data set [1] is listed as “aggravated aggregation”. The “solubility (aggregation point)” value in data set [1] (solubility in 0.9% NaCl, compared to AQGV-Ac) is listed as “lower solubility”.
In the case of `CC(C)[C@H](NC(=O)CNC(=O)[C@H](CCC(N)=O)NC(=O)[C@H](C)N)C(=O)O` [EA-230, AQGV] (H-AQGV-OH), in data set [2] (EA-230 group N = 91), the “AE of mild intensity, % of patients” value is given as “(83.5) %”; the “AE of mild intensity, e = Number of events” value turned out to be 188; the “AE of mild intensity, n = Number of patients experiencing the event” value is recorded as 76; the “AE of moderate intensity, % of patients” value is listed as “(24.2) %”. Besides, in data set [2] (EA-230 group N = 91), the “AE of moderate intensity, e = Number of events” value stood at 23; the “AE of moderate intensity, n = Number of patients experiencing the event” value is 22; the “AE of severe intensity, % of patients” value was “(5.5) %”; the “AE of severe intensity, e = Number of events” value was found to be 6. In addition, in data set [2] (EA-230 group N = 91), the “AE of severe intensity, n = Number of patients experiencing the event” value is listed as 5; the “Anemia, % of patients” value is “(5.5) %”; the “Anemia, e = Number of events” value is recorded as 5; the “Anemia, n = Number of patients experiencing the event” value amounted to 5. Also, in data set [2] (EA-230 group N = 91), the “Any AE, % of patients” value is recorded as “(85.7) %”; the “Any AE, n = Number of patients experiencing the event” value was 78; the “Any SAE, % of patients” value is “(13.2) %”; the “Any SAE, e = Number of events” value turned out to be 23. Moreover, in data set [2] (EA-230 group N = 91), the “Any SAE, n = Number of patients experiencing the event” value worked out at 12; the “Any SUSAR, % of patients” value is listed as “(0) %”; the “Any SUSAR, e = Number of events” value was 0; the “Any SUSAR, n = Number of patients experiencing the event” value was found to be 0. In data set [2] (EA-230 group N = 91), the “Blood and lymphatic system disorders Overall, % of patients” value is given as “(5.5) %”; the “Blood and lymphatic system disorders Overall, e = Number of events” value was found to be 6; the “Blood and lymphatic system disorders Overall, n = Number of patients experiencing the event” value is 5; the “Delirium, % of patients” value is listed as “(5.5) %”. In addition, in data set [2] (EA-230 group N = 91), the “Delirium, e = Number of events” value was found to be 5; the “Delirium, n = Number of patients experiencing the event” value is reported as 5; the “Fluid retention, % of patients” value is reported as “(2.2) %”; the “Fluid retention, e = Number of events” value is reported as 2. Also, in data set [2] (EA-230 group N = 91), the “Fluid retention, n = Number of patients experiencing the event” value was found to be 2; the “Gastrointestinal disorders Overall, % of patients” value is listed as “(23.1) %”; the “Gastrointestinal disorders Overall, e = Number of events” value turned out to be 27; the “Gastrointestinal disorders Overall, n = Number of patients experiencing the event” value amounted to 21. Moreover, in data set [2] (EA-230 group N = 91), the “Hemorrhagic diathesis, % of patients” value is “(1.1) %”; the “Hemorrhagic diathesis, e = Number of events” value is on record as 1; the “Hemorrhagic diathesis, n = Number of patients experiencing the event” value is listed as 1; the “Infections and infestations Overall, % of patients” value is “(14.3) %”. Besides, in data set [2] (EA-230 group N = 91), the “Infections and infestations Overall, e = Number of events” value is reported as 15; the “Infections and infestations Overall, n = Number of patients experiencing the event” value is 13; the “Metabolism and nutrition disorders Overall, % of patients” value is recorded as “(11) %”; the “Metabolism and nutrition disorders Overall, e = Number of events” value stood at 10. In data set [2] (EA-230 group N = 91), the “Metabolism and nutrition disorders Overall, n = Number of patients experiencing the event” value was determined as 10; the “Nausea, % of patients” value is “(16.5) %”; the “Nausea, e = Number of events” value is 15; the “Nausea, n = Number of patients experiencing the event” value was 15. For the same molecule, in data set [2] (EA-230 group N = 91), the “Psychiatric disorders Overall, % of patients” value is listed as “(9.9) %”; the “Psychiatric disorders Overall, e = Number of events” value is given as 9; the “Psychiatric disorders Overall, n = Number of patients experiencing the event” value worked out at 9; the “Renal and urinary disorders Overall, % of patients” value is given as “(4.4) %”. Moreover, in data set [2] (EA-230 group N = 91), the “Renal and urinary disorders Overall, e = Number of events” value is recorded as 4; the “Renal and urinary disorders Overall, n = Number of patients experiencing the event” value came to 4. For the same molecule, in data set [2] (clinical trials / throughout surgery), the safety and tolerability entry is “safe and well tolerated; also recorded: found to be safe”.
`Nc1ncnc2c1ncn2[C@@H]1O[C@H](COP(=O)(O)O)[C@@H](O)[C@H]1O` [adenosine-monophosphate]: in data set [1], the “solubility (aggregation point)” value is recorded as “did not provide solubility” and the “aggregation in aqueous solution” value is on record as “aggravated aggregation”.
As to `Nc1ncnc2c1ncn2[C@@H]1O[C@H](CO)[C@@H](O)[C@H]1O` [adenosine], in data set [1], the “solubility (aggregation point)” value is listed as “did not provide solubility” and the “aggregation in aqueous solution” value is “aggravated aggregation”.
